Data: patent US20230148005A1, “MACROCYCLIC COMPOUNDS AND USES THEREOF” (THESEUS PHARMACEUTICALS, INC., priority 2020, published 2023)

How the values were obtained:
EGFR^L858R = EGFR^L858R (Homo sapiens, UniProt P00533, L858R); assay: in vitro kinase assay (HTRF KinEASE-TK kit), L; format: biochemical; details: kinase inhibition
From the text: (§1) Assays using an in vitro kinase assay kit (HTRF KinEASE-TK kit) can be used to study the inhibitory activity of compounds described herein with respect to EGFR mutants such as EGFR^L858R, EGFR^L58R/T790M, and EGFR^L858R/T790M/C^797S.

Ba/F3 EGFR-Del19/C797S = Ba/F3 EGFR-Del19/C797S (Homo sapiens, UniProt P00533, C797S, cells depend on it, form not given); assay: Ba/F3 viability assay (CellTiter-Glo), DC; format: cell-based; details: anti-proliferation, read-out: BaF3 DC IC50
Outline: (§2)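 Cells are exposed to test compounds, and viability is then read to gauge inhibition of proliferation.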

EGFR^L58R/T790M = EGFR^L58R/T790M (Homo sapiens, UniProt P00533, L858R/T790M); assay: in vitro kinase assay (HTRF KinEASE-TK kit), LT; format: biochemical; details: kinase inhibition
From the text: as §1

Ba/F3 Parental = assay: Ba/F3 viability assay (CellTiter-Glo), parental; format: cell-based; details: Mus musculus, BaF3, anti-proliferation
Outline: as §2

EGFR^L858R/T790M/C^797S = EGFR^L858R/T790M/C^797S (Homo sapiens, UniProt P00533, C797S/L858R/T790M); assay: in vitro kinase assay (HTRF KinEASE-TK kit), LTC; format: biochemical; details: kinase inhibition
From the text: as §1

[1] = biological target: Ba/F3 EGFR-Del19/T790M/C797S (Homo sapiens, UniProt P00533, T790M/C797S, cells depend on it, form not given); assay: Ba/F3 viability assay (CellTiter-Glo), DTC; format: cell-based; details: anti-proliferation, read-out: BaF3 DTC IC50
Outline: as §2

Ba/F3 EGFR-Del19/T790M = Ba/F3 EGFR-Del19/T790M (Homo sapiens, UniProt P00533, T790M, cells depend on it, form not given); assay: Ba/F3 viability assay (CellTiter-Glo), DT; format: cell-based; details: anti-proliferation, read-out: BaF3 DT IC50
Outline: as §2

Ba/F3 EGFR-Del19/C797S, sequence (P00533 with tags, fused parts or gaps DEL746-750/C797S, form open): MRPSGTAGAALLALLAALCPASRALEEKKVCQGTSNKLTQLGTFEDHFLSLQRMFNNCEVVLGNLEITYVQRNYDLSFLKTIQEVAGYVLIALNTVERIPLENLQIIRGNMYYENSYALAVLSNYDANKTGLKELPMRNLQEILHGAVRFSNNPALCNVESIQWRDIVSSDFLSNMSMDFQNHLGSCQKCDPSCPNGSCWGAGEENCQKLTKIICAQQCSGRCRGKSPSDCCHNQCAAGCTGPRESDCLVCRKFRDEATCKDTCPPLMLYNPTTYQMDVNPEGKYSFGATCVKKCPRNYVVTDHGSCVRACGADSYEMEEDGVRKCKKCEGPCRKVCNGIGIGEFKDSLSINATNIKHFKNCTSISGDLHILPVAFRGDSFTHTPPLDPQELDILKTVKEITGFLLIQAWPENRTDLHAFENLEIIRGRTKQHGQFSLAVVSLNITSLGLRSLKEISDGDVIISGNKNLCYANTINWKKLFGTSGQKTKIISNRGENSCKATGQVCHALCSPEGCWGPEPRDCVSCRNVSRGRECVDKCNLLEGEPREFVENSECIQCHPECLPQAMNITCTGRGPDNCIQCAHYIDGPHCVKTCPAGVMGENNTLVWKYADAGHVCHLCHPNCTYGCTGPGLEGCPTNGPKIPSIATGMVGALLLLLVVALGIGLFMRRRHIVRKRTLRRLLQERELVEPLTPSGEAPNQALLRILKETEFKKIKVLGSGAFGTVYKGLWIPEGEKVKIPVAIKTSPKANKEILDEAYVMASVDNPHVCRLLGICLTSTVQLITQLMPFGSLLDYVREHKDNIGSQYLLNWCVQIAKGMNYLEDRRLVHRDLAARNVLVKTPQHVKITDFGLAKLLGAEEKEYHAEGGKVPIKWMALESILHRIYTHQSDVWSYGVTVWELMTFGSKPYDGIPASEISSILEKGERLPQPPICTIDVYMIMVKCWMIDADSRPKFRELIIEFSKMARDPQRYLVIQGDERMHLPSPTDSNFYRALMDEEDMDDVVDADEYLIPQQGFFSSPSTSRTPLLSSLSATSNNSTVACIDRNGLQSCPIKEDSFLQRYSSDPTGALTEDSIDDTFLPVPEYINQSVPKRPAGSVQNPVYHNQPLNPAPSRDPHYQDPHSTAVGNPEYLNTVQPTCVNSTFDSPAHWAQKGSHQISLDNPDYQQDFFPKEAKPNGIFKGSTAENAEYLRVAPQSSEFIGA
EGFR^L858R, sequence (P00533 25-1210 L858R): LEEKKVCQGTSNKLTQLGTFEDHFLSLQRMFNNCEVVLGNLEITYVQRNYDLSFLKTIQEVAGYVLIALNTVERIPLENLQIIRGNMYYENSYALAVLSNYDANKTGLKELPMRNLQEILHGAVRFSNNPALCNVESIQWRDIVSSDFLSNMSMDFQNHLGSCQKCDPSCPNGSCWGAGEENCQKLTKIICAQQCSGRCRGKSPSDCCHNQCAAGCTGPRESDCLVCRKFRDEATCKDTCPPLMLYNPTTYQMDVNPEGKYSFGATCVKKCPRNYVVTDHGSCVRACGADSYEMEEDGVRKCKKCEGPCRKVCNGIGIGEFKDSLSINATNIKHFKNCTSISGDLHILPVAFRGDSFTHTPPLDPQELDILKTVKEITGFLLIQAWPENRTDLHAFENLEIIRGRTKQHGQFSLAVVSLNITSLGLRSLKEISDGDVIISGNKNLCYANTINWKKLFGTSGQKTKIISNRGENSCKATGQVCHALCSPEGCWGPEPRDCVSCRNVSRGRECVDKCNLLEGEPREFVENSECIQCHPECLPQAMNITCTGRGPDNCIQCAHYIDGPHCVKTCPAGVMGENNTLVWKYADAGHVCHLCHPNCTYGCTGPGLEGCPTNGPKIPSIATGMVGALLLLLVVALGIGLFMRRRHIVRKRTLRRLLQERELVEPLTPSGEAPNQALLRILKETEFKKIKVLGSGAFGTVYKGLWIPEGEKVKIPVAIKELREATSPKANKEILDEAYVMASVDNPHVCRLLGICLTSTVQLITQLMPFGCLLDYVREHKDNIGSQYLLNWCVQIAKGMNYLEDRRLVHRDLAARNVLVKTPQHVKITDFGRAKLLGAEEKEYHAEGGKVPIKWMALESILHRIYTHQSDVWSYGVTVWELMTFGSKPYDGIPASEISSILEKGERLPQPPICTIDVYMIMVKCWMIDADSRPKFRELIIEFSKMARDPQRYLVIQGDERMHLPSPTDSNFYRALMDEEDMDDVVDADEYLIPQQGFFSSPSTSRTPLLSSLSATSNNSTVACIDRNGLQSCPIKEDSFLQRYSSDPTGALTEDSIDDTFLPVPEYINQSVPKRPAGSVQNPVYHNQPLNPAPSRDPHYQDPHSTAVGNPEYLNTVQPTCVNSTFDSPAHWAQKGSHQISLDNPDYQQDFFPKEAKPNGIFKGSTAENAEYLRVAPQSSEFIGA
EGFR^L58R/T790M, sequence (P00533 25-1210 T790M/L858R): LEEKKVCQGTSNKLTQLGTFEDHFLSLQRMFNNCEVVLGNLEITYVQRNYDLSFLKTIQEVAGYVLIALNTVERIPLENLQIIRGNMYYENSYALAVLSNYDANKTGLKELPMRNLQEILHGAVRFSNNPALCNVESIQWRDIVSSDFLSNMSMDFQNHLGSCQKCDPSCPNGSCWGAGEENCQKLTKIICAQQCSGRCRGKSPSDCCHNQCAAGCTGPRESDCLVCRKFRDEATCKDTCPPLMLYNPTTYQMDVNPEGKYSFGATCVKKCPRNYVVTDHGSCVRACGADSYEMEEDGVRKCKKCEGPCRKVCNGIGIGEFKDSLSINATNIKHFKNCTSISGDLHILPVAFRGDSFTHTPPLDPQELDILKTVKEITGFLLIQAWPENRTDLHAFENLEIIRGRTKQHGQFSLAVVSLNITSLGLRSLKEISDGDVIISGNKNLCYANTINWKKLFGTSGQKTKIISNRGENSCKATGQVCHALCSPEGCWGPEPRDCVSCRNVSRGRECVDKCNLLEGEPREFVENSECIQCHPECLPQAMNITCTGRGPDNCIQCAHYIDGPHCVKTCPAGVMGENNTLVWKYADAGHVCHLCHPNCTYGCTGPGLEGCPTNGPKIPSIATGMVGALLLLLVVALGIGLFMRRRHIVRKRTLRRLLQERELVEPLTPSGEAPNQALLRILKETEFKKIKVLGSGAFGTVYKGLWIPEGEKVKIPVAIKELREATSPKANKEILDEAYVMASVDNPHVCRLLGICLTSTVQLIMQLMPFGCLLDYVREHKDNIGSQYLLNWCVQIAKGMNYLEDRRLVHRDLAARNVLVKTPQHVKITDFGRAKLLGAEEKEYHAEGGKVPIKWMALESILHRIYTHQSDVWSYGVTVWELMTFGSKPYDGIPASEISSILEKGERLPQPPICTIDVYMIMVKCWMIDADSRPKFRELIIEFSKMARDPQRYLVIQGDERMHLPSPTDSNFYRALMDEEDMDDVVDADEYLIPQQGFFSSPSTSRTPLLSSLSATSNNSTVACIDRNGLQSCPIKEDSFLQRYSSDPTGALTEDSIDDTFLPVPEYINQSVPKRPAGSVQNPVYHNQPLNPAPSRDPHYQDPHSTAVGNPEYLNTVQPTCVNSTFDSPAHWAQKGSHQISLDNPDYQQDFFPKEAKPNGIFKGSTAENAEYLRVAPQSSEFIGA
EGFR^L858R/T790M/C^797S, sequence (P00533 25-1210 T790M/C797S/L858R): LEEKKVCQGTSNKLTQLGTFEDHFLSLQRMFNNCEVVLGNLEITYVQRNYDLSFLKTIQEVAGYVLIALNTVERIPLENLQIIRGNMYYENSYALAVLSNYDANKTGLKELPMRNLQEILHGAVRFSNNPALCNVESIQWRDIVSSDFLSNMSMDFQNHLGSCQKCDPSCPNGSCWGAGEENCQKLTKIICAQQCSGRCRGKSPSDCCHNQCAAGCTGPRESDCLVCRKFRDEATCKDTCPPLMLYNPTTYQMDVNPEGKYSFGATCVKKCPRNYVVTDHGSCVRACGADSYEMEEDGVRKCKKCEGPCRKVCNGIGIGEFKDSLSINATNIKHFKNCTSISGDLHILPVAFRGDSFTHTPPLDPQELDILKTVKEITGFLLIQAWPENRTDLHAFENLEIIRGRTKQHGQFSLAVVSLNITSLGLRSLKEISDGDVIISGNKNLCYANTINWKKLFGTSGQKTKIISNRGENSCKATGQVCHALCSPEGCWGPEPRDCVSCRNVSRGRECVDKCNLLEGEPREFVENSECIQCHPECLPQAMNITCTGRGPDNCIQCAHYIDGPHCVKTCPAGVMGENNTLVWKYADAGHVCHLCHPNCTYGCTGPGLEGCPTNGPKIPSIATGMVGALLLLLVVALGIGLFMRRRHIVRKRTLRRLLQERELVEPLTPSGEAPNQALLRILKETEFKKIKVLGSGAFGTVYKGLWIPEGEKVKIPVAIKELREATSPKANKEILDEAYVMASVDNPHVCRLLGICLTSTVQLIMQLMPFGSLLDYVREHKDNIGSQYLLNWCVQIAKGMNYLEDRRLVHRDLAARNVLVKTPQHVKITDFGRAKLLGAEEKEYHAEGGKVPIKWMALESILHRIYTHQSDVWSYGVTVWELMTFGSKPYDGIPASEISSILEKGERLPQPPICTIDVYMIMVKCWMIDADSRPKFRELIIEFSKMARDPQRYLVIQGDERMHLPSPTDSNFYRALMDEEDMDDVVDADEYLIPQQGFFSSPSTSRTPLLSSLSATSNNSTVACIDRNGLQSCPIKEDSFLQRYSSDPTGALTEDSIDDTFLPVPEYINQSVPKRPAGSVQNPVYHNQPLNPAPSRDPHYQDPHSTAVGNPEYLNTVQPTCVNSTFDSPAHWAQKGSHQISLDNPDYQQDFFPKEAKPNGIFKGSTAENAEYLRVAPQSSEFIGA

## C[C@H]1CCOc2c(cnn2C)-c2nccc(n2)Nc2cc3c(cn2)c(-c2ccc(CN4CCN(CCF)CC4)n2C)nn31 [(193)]
EGFR^L858R
  IC50: < 10 nM
Ba/F3 EGFR-Del19/C797S
  GI50: < 10 nM
EGFR^L58R/T790M
  IC50: < 10 nM
Ba/F3 Parental
  IC50: 100 to 1000 nM
EGFR^L858R/T790M/C^797S
  IC50: < 10 nM
[1]
  GI50: < 10 nM
Ba/F3 EGFR-Del19/T790M
  GI50: < 10 nM
